Assay results taken from patent US4456597A.

Legend:
Format in all cases: cell-based
Details in all cases: 1.0 μg/ml
spleen cell suspension [1] = assay: IF induction in vitro, rabbit (Table 6)
Procedure: (§1) A spleen cell suspension (10^7 cells/ml) was prepared by the method of hereinafter described Experiment 1 using an Eagle MEM medium (commercial product of Nissui Seiyaku K.K., Tokyo) containing a 10% calf serum (which was replaced by a 10% fetal cattle serum in the cases of human tests), each of which fraction (1 ml) was added with a given concetration of the sample and incubated overnight at a given temperature. The cultured liquor was centrifuged to separate a supernatant which was used for determining the IF activity induced. In the case of humans, the fresh spleen was collected from a person (adult deceased by external wounds) and used for the preparation of a leucocytes suspension on each occasion, and also blood was collected from the vein at the upper arm of a person (adult), from which the serum was separated to use for the preparation of a serum suspension on each occasion.
(§2) The IF activities were determined by using the cells shown in Table 5 in a similar manner to that hereinafter described in Experiment 1.

spleen cell suspension [2] = assay: IF induction in vitro, mouse (Table 6)
Procedure: as §1, §2

Human (spleen) = assay: IF induction in vitro, human spleen (Table 6)
Procedure: as §1, §2

In the case of Poly I:C, the “IF activity in vitro (Control)” value (spleen cell suspension [1]) is reported as 190, the “IF activity in vitro (Control)” value (spleen cell suspension [2]) is reported as 80 and the “IF activity in vitro (Control)” value (Human (spleen)) is reported as less than 10.
